According to US12594265B2, “Methods and compositions for inhibition of STAT3” (Ohio State Innovation Foundation, priority 2017, dated 2026):
“Also recorded” adds a separate entry of the source.

How the values were obtained:
[1] = test system: IL-17 production in myelin-specific CD4 T cells; assay: Inhibition of IL-17 production in myelin-specific CD4 T cells (splenocytes activated with MBP Ac1-11 plus TGF-β and IL-6; flow cytometry, ELISA); assay type: cell-based, mice; settings: 3 days; for suppression of IL-17 production in myelin-specific CD4 T cells (in words): in vitro; for suppression of IL-17 production: murine myelin-specific CD4 T cells
Experimental: In vitro culture of splenocytes from TCR transgenic mice. Splenocytes were prepared from naïve 5-10-wk-old Vα2.3/Vβ8.2 TCR transgenic mice and cultured in 24-well plates at […] with irradiated B10.PL splenocytes (6×10^8 cells/well). Cells were activated with of MBP Ac1-11 (10 μg/ml) and different combination of cytokines or neutralizing antibodies for cytokines to differentiate effector T helper cells. Cytokines and antibody concentrations were as follows: 0.5 ng/ml IL-12, 25 ng/ml IL-6, 1 ng/ml TGFβ1, 2 μg/ml anti-IFNγ, 1 μg/ml anti-IL-12, 2 μg/ml anti-IL-4, and 0.35 μg/ml anti-TGFβ (Yang, Weiner et al. 2009).
ELISA Assay. ELISA was performed to detect the expression of IL-17 and IFNγ in supernatant. Purified anti-mouse IL-17 primary antibody (BD bioscience) was diluted in 0.1 M NaHCO3 (pH 8.2) at 2 μg/ml while purified anti-mouse IFNγ primary antibody was diluted in 0.1M NaHCO3 (pH 9.5) at 2 μg/ml. Immunolon II plates (Dynatech Laboratories) were coated with 50 μl of primary antibodies per well and incubated overnight at 4° C. The plates were washed twice with PBS/0.05% Tween 20. The plates were blocked with 200 μl of 1% BSA in PBS per well for 2 h. The plates were washed twice with PBS/0.05% Tween 20, and 100 μl of supernatants were added in duplicate. The plates were incubated over-night at 4° C. and washed four times with PBS/0.05% Tween 20. Biotinylated rat anti-mouse secondary antibody (BD bioscience) were diluted in PBS/1% BSA, 100 μl of 1 μg/ml biotinylated antibody was added to each well, and plates were incubated at room temperature for 1 h. The plates were washed six times with PBS/0.05% Tween 20, and 100 μl avidin-peroxidase was added at 2.5 μg/ml and incubated for 30 min. The plates were washed eight times with PBS/0.05% Tween 20, and 100 μl ABTS substrate containing 0.03% H2O2 (for IL-17) or TMB substrate (for IFNγ) was added to each well. The plate was monitored for 10-20 min for color development and read at A 405. A standard curve was generated from cytokine standard, and the cytokine concentration in the samples was calculated.
Intracellular staining and flow cytometric analysis. Flow cytometric analysis was performed to evaluate the expression of surface markers and T-bet in CD4 T cells, as previously described (Yang, Weiner et al. 2009). Briefly, splenocytes were activated with antigen or αCD3/CD28 for 48 to 72 hours. Cells were then collected, washed, and resuspended in staining buffer (1% BSA in PBS). The cells were incubated with mAbs to the cell-surface markers for 30 min at 4° C. After washing twice with staining buffer, cells were fixed and permeabilized using Cytofix/Cytoperm solution for 20 min at 4° C. […] 80,000-100,000 live cell events were acquired on a FACSCanto (BD) and analyzed using FlowJo software (Tree Star, Inc.). […]

[2] = test system: relapsing-remitting EAE model of MS; assay: Relapsing-remitting EAE model of MS (PLP-immunized SJL mice); assay type: in vivo; settings: 10 mg/kg daily, days 9-15 or days 36-42
Experimental: EAE Induction. Immunization: 8-10 week old B6/WT or SJL/WT mice were s.c. injected over four sites in the flank with 200 μg MOG 35-55 or […] (CS bio) in an emulsion with CFA (Difco). 200 ng pertussis toxin (List) per mouse in PBS was injected i.p. at the time of immunization and 48 h later. Adoptive transfer: Splenocytes were isolated from naïve 5-10-week-old Vα2.3/Vβ8.2 TCR transgenic mice and activated with 10 μg/ml of MBP Ac1-11 with or without rmIL-6 in 24-well plates at […] with irradiated B10.PL splenocytes (6×10^8 cells/well). After 72 hours, the cells were washed with PBS and 8×10^6 were injected i.p. into naïve B10.PL mice. Evaluation. The mice were evaluated daily for clinical signs of EAE. Mice were scored on scale of 0 to 6:0, no clinical disease; 1, limp/flaccid tail; 2, moderate hind limb weakness; 3. severe hind limb weakness; 4. complete hind limb paralysis; 5 quadriplegia or premoribund state; and 6, death.
SJL mice develop relapsing-remitting disease after immunization with PLP 139-151, which resembles human relapsing-remitting MS, the major subtype of MS that affects more than 85% of MS patients. […]

| Compound | suppression of IL-17 production in myelin-specific CD4 T cells (in words) [1] | suppression of IL-17 production ([1]; 0.25 μM) [%] | suppression of IL-17 production ([1]; 0.50 μM) [%] | acute and relapsing EAE (mean clinical score) [2] |
| --- | --- | --- | --- | --- |
| NS(=O)(=O)c1cccc2c1C(=O)c1cccc(O)c1C2=O [LLL12] | inhibition of IL-17 |  |  |  |
| CN(C)C(=O)Oc1cccc2c1C(=O)c1cccc(S(N)(=O)=O)c1C2=O [LLL12b] | significantly suppress IL-17 production; also recorded: inhibits myelin-specific IL-17 production in a dose-dependent manner | 44 | 72 | significantly suppresses acute and relapsing EAE |
